Earlier results as cited in US7312207B2, “Topical steroid cream formulations” (Taro Pharmaceuticals North America, Inc., priority 2004, dated 2007).

For `C[C@@H]1C[C@H]2[C@@H]3CCC4=CC(=O)C=C[C@]4(C)[C@@]3(Cl)[C@@H](O)C[C@]2(C)[C@@]1(OC(=O)c1ccco1)C(=O)CCl` [Mometasone furoate, 9(alpha), 21-Dichloro-11(beta), 17-dihydroxy-16(alpha)-methylpregna-1,4-diene-3,20 dione 17-(2-furoate)], the “solubility in ethyl alcohol” value (ethyl alcohol) is listed as “moderately soluble”, the solubility in octanol (octanol) is listed as “slightly soluble” and the solubility in water (water) is listed as “insoluble”.
